Data reported in EP4563146A1 (IRBM S.P.A., priority 2023, dated 2025).

The compounds below were run on ZIKV replicon (assay: ZIKV replication inhibition assay (NanoLuc replicon in Vero cells)). Details: Zika virus, Vero, 72 h, read-out: ZIKA Cell_Nanoluc.

**Q.** With NCC12CC(C[n+]3cc([N-]C(=O)Nc4cc(NC(=O)Cc5ccccc5)cc(C(F)(F)F)c4)on3)(C1)C2 [Example 103] as the compound, how does the EC50 read?
**A.** Its EC50 is > 20 µM.

**Q.** With O=C(Cc1ccccc1)Nc1cc(NC(=O)[N-]c2c[n+](CC3CCNCC3)no2)cc(C(F)(F)F)c1 [Example 120] as the compound, how does the EC50 read?
**A.** The EC50 was > 20 µM.

**Q.** With CN1CCCCC1C[n+]1cc([N-]C(=O)Nc2cc(NC(=O)Cc3ccccc3)cc(C3CC3)c2)on1 (stereo not shown) [Example 127] as the compound, how does the EC50 read?
**A.** The EC50 was 1 to 20 µM.

**Q.** For N[C@H]1CC[C@@H](C[n+]2cc([N-]C(=O)Nc3cc(N4CCC(c5ccccc5)C4=O)cc(C(F)(F)F)c3)on2)CC1 (stereo partly drawn) [Example 131, (3-(((1S,4S)-4-Aminocyclohexyl)methyl)-1,2,3-oxadiazol-3-ium-5-yl)((3-(2-oxo-3-phenylpyrrolidin-1-yl)-5-(trifluoromethyl)-phenyl)carbamoyl)amide], which EC50 is on record?
**A.** The EC50 was 1 to 20 µM.

Same assay, conditions: Zika virus, Vero, 72 h, read-out: ZIKA Cell_Nanoluc, Vero cells with stable ZIKV replicon, 72 h, Nano-Glo readout

**Q.** Which EC50 does the source give for O=C(Cc1ccccc1)Nc1cc(NC(=O)[N-]c2c[n+](C3CCNCC3)no2)cc(C(F)(F)F)c1 [Example 99, ((3-(2-Phenylacetamido)-5-(trifluoromethyl)-phenyl)carbamoyl)(3-(piperidin-4-yl)-1,2,3-oxadiazol-3-ium-5-yl)amide] here?
**A.** Its EC50 is 1 to 20 µM.

**Q.** How did the EC50 turn out when CN1CCC([n+]2cc([N-]C(=O)Nc3cc(NC(=O)Cc4ccccc4)cc(C(F)(F)F)c3)on2)CC1 [Example 100, (3-(1-Methylpiperidin-4-yl)-1,2,3-oxadiazol-3-ium-5-yl)((3-(2-phenylacetamido)-5-(trifluoromethyl)phenyl)carbamoyl)amide] was run?
**A.** Its EC50 is 1 to 20 µM.

**Q.** Which EC50 does the source give for O=C(Cc1ccccc1)Nc1cc(NC(=O)[N-]c2c[n+](Cc3ccc(C(=O)O)cc3)no2)cc(C(F)(F)F)c1 [Example 101, (3-(4-Carboxybenzyl)-1,2,3-oxadiazol-3-ium-5-yl)((3-(2-phenylacetamido)-5-(trifluoromethyl)phenyl)carbamoyl)amide] here?
**A.** Its EC50 is > 20 µM.

**Q.** How did the EC50 turn out when O=C(Cc1ccccc1)Nc1cc(NC(=O)[N-]c2c[n+](Cc3ccc(CO)cc3)no2)cc(C(F)(F)F)c1 [Example 102, (3-(4-(Hydroxymethyl)benzyl)-1,2,3-oxadiazol-3-ium-5-yl)((3-(2-phenylacetamido)-5-(trifluoromethyl)phenyl)carbamoyl)amide] was run?
**A.** The EC50 was 1 to 20 µM.

**Q.** For NC(=O)c1ccc(C[n+]2cc([N-]C(=O)Nc3cc(NC(=O)Cc4ccccc4)cc(C(F)(F)F)c3)on2)cc1 [Example 104, (3-(4-Carbamoylbenzyl)-1,2,3-oxadiazol-3-ium-5-yl)((3-(2-phenylacetamido)-5-(trifluoromethyl)phenyl)carbamoyl)amide], which EC50 is on record?
**A.** The EC50 was 1 to 20 µM.

**Q.** For CN1CCCCC1C[n+]1cc([N-]C(=O)Nc2cc(NC(=O)Cc3ccccc3)cc(C(F)(F)F)c2)on1 (stereo not shown) [Example 105, (3-((1-Methylpiperidin-2-yl)methyl)-1,2,3-oxadiazol-3-ium-5-yl)((3-(2-phenylacetamido)-5-(trifluoromethyl)phenyl)carbamoyl)amide], which EC50 is on record?
**A.** Its EC50 is 0.1 to 1 µM.

**Q.** With CN1CCC(C[n+]2cc([N-]C(=O)Nc3cc(NC(=O)Cc4ccccc4)cc(C(F)(F)F)c3)on2)CC1 [Example 106, (3-((1-Methylpiperidin-4-yl)methyl)-1,2,3-oxadiazol-3-ium-5-yl)((3-(2-phenylacetamido)-5-(trifluoromethyl)phenyl)carbamoyl)amide] as the compound, how does the EC50 read?
**A.** The EC50 was 1 to 20 µM.

**Q.** With O=C(Cc1ccccc1)Nc1cc(NC(=O)[N-]c2c[n+](Cc3cccc(CN4C(=O)c5ccccc5C4=O)c3)no2)cc(C(F)(F)F)c1 [Example 107, (3-(3-((1,3-Dioxoisoindolin-2-yl)methyl)benzyl)-1,2,3-oxadiazol-3-ium-5-yl)((3-(2-phenylacetamido)-5-(trifluoromethyl)phenyl)carbamoyl)amide] as the compound, how does the EC50 read?
**A.** Its EC50 is 1 to 20 µM.

**Q.** Which EC50 does the source give for NCc1cccc(C[n+]2cc([N-]C(=O)Nc3cc(NC(=O)Cc4ccccc4)cc(C(F)(F)F)c3)on2)c1 [Example 108, (3-(3-(Aminomethyl)benzyl)-1,2,3-oxadiazol-3-ium-5-yl)((3-(2-phenylacetamido)-5-(trifluoromethyl)phenyl)carbamoyl)amide] here?
**A.** Its EC50 is 1 to 20 µM.

**Q.** COC(=O)Cc1ccc(C[n+]2cc([N-]C(=O)Nc3cc(NC(=O)Cc4ccccc4)cc(C(F)(F)F)c3)on2)cc1 [Example 109, (3-(4-(2-Methoxy-2-oxoethyl)benzyl)-1,2,3-oxadiazol-3-ium-5-yl)((3-(2-phenylacetamido)-5-(trifluoromethyl)phenyl)carbamoyl)amide] was tested. Which EC50 did it give?
**A.** The EC50 was 0.1 to 1 µM.

**Q.** With O=C(Cc1ccccc1)Nc1cc(NC(=O)[N-]c2c[n+](CC3CCCNC3)no2)cc(C(F)(F)F)c1 (stereo not shown) [Example 110, ((3-(2-Phenylacetamido)-5-(trifluoromethyl)phenyl)carbamoyl)(3-(piperidin-3-ylmethyl)-1,2,3-oxadiazol-3-ium-5-yl)amide] as the compound, how does the EC50 read?
**A.** The EC50 was > 20 µM.

**Q.** O=C(Cc1ccccc1)Nc1cc(NC(=O)[N-]c2c[n+](Cc3ccc(CCO)cc3)no2)cc(C(F)(F)F)c1 [Example 111, (3-(4-(2-Hydroxyethyl)benzyl)-1,2,3-oxadiazol-3-ium-5-yl)((3-(2-phenylacetamido)-5-(trifluoromethyl)phenyl)carbamoyl)amide] was tested. Which EC50 did it give?
**A.** The EC50 was 0.1 to 1 µM.

**Q.** Which EC50 does the source give for NC1C2COCC1CC([n+]1cc([N-]C(=O)Nc3cc(NC(=O)Cc4ccccc4)cc(C(F)(F)F)c3)on1)C2 (stereo not shown) [Example 112, (3-(9-Amino-3-oxabicyclo[3.3.1]nonan-7-yl)-1,2,3-oxadiazol-3-ium-5-yl)((3-(2-phenylacetamido)-5-(trifluoromethyl)phenyl)carbamoyl)amide] here?
**A.** The EC50 was > 20 µM.

**Q.** For COC(=O)c1ccc(C[n+]2cc([N-]C(=O)Nc3cc(NC(=O)Cc4ccccc4)cc(C(F)(F)F)c3)on2)nc1 [Example 113, (3-((5-(Methoxycarbonyl)pyridin-2-yl)methyl)-1,2,3-oxadiazol-3-ium-5-yl)((3-(2-phenylacetamido)-5-(trifluoromethyl)phenyl)carbamoyl)amide], which EC50 is on record?
**A.** The EC50 was 1 to 20 µM.

**Q.** NCc1ccccc1C[n+]1cc([N-]C(=O)Nc2cc(NC(=O)Cc3ccccc3)cc(C(F)(F)F)c2)on1 [Example 114, (3-(2-(Aminomethyl)benzyl)-1,2,3-oxadiazol-3-ium-5-yl)((3-(2-phenylacetamido)-5-(trifluoromethyl)phenyl)carbamoyl)amide] was tested. Which EC50 did it give?
**A.** Its EC50 is 1 to 20 µM.

**Q.** O=C(Cc1ccccc1)Nc1cc(NC(=O)[N-]c2c[n+](CC3CNCCCO3)no2)cc(C(F)(F)F)c1 (stereo not shown) [Example 115, (3-((1,4-oxazepan-2-yl)methyl)-1,2,3-oxadiazol-3-ium-5-yl)((3-(2-phenylacetamido)-5-(trifluoromethyl)phenyl)carbamoyl)amide] was tested. Which EC50 did it give?
**A.** The EC50 was 1 to 20 µM.

**Q.** Which EC50 does the source give for O=C(Cc1ccccc1)Nc1cc(NC(=O)[N-]c2c[n+](Cc3ccc(CO)cn3)no2)cc(C(F)(F)F)c1 [Example 116, (3-((5-(Hydroxymethyl)pyridin-2-yl)methyl)-1,2,3-oxadiazol-3-ium-5-yl)((3-(2-phenylacetamido)-5-(trifluoromethyl)phenyl)carbamoyl)amide] here?
**A.** The EC50 was 1 to 20 µM.

**Q.** CN1CCCC(C[n+]2cc([N-]C(=O)Nc3cc(NC(=O)Cc4ccccc4)cc(C(F)(F)F)c3)on2)C1 (stereo not shown) [Example 117, (3-((1-Methylpiperidin-3-yl)methyl)-1,2,3-oxadiazol-3-ium-5-yl)((3-(2-phenylacetamido)-5-(trifluoromethyl)phenyl)carbamoyl)amide] was tested. Which EC50 did it give?
**A.** Its EC50 is 1 to 20 µM.

**Q.** How did the EC50 turn out when NC1CC(C[n+]2cc([N-]C(=O)Nc3cc(NC(=O)Cc4ccccc4)cc(C(F)(F)F)c3)on2)C1 (stereo not shown) [Example 118, (3-((3-Aminocyclobutyl)methyl)-1,2,3-oxadiazol-3-ium-5-yl)((3-(2-phenylacetamido)-5-(trifluoromethyl)phenyl)carbamoyl)amide] was run?
**A.** Its EC50 is 1 to 20 µM.

**Q.** For O=C([N-]c1c[n+](Cc2ccccn2)no1)Nc1cc(N2CC(c3ccccc3)CC2=O)cc(C(F)(F)F)c1 (stereo not shown) [Example 122, ((3-(2-Oxo-4-phenylpyrrolidin-1-yl)-5-(trifluoromethyl)phenyl)carbamoyl)(3-(pyridin-2-ylmethyl)-1,2,3-oxadiazol-3-ium-5-yl)amide], which EC50 is on record?
**A.** Its EC50 is 1 to 20 µM.

**Q.** Which EC50 does the source give for O=C(Cc1ccc(=O)[nH]c1)Nc1cc(NC(=O)[N-]c2c[n+](Cc3ccccn3)no2)cc(C(F)(F)F)c1 [Example 123, ((3-(2-(6-Oxo-1,6-dihydropyridin-3-yl)acetamido)-5-(trifluoromethyl)phenyl)-carbamoyl)(3-(pyridin-2-ylmethyl)-1,2,3-oxadiazol-3-ium-5-yl)amide] here?
**A.** The EC50 was > 20 µM.

**Q.** O=C(Cc1ccc2nc[nH]c2c1)Nc1cc(NC(=O)[N-]c2c[n+](Cc3ccccn3)no2)cc(C(F)(F)F)c1 [Example 124, ((3-(2-(1H-Benzo[d]imidazol-6-yl)acetamido)-5-(trifluoromethyl)phenyl)carbamoyl)(3-(pyridin-2-ylmethyl)-1,2,3-oxadiazol-3-ium-5-yl)amide] was tested. Which EC50 did it give?
**A.** The EC50 was > 20 µM.

**Q.** How did the EC50 turn out when O=C(Cc1ccccc1)Nc1cc(NC(=O)[N-]c2c[n+](CC3CCCCN3)no2)cc(C(F)(F)F)c1 (stereo not shown) [Example 125, ((3-(2-Phenylacetamido)-5-(trifluoromethyl)-phenyl)carbamoyl)(3-(piperidin-2-ylmethyl)-1,2,3-oxadiazol-3-ium-5-yl)amide] was run?
**A.** Its EC50 is 1 to 20 µM.

**Q.** Which EC50 does the source give for O=C(Cc1cccc2cn[nH]c12)Nc1cc(NC(=O)[N-]c2c[n+](Cc3ccccn3)no2)cc(C(F)(F)F)c1 [Example 126, ((3-(2-(1H-Indazol-7-yl)acetamido)-5-(trifluoromethyl)phenyl)carbamoyl)(3-(pyridin-2-ylmethyl)-1,2,3-oxadiazol-3-ium-5-yl)amide] here?
**A.** Its EC50 is > 20 µM.

**Q.** For COC(=O)c1ccc(C[n+]2cc([N-]C(=O)Nc3cc(NC(=O)Cc4ccccc4)cc(C4CC4)c3)on2)nc1 [Example 128, ((3-Cyclopropyl-5-(2-phenylacetamido)phenyl)-carbamoyl)(3-((5-(methoxycarbonyl)pyridin-2-yl)methyl)-1,2,3-oxadiazol-3-ium-5-yl)amide], which EC50 is on record?
**A.** The EC50 was 1 to 20 µM.

**Q.** O=C(Cc1ccccc1)Nc1cc(NC(=O)[N-]c2c[n+](Cc3ccc(CO)cn3)no2)cc(C2CC2)c1 [Example 129, ((3-Cyclopropyl-5-(2-phenylacetamido)phenyl)-carbamoyl)(3-((5-(hydroxymethyl)pyridin-2-yl)methyl)-1,2,3-oxadiazol-3-ium-5-yl)amide] was tested. Which EC50 did it give?
**A.** The EC50 was 1 to 20 µM.

**Q.** C[C@@H]1C[C@H]1c1cc(NC(=O)Cc2ccccc2)cc(NC(=O)[N-]c2c[n+](Cc3ccccn3)no2)c1 [Example 130, ((3-((1R,2R)-2-Methylcyclopropyl)-5-(2-phenylacetamido)phenyl)-carbamoyl)(3-(pyridin-2-ylmethyl)-1,2,3-oxadiazol-3-ium-5-yl)amide] was tested. Which EC50 did it give?
**A.** The EC50 was 1 to 20 µM.
